From PubChem BioAssay (NCI)
“And” between values parts separate entries of the source, which are not always exact repeats. Equal entries are not always repeated.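 48-hour exposure; five concentrations; linearly interpolated endpoints. Here, GI50 denotes the concentration required for 50% inhibition of growth. TGI marks complete inhibition of growth.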

Key:
Experiment in all cases: growth of human tumour cells (NCI), 48 h
[1] = system: MDA-MB-435
[2] = system: SK-OV-3 ovarian
[3] = system: HCT-15 colon
[4] = system: SR leukemia
[5] = system: RPMI-8226 leukemia
[6] = system: EKVX NSCLC
[7] = system: T-47D breast
[8] = system: ACHN renal
[9] = system: OVCAR-5 ovarian
[10] = system: A498 renal

With `NC(N)=N/N=C/c1cccc(Cl)c1Cl` the GI50 [1] was 1.77 µM, the TGI [1] was 3.89 µM and the GI50 [2] was 7.06 µM. The TGI [2] was 20 µM, the GI50 [3] was 3.25 µM and the TGI [3] was 11.7 µM. It also gave a GI50 [4] of 2.72 µM, a TGI [4] of 11.2 µM and a GI50 [5] of 3.39 µM. For the same molecule, the TGI [5] was 15.1 µM, the GI50 [6] was 9.02 µM and the TGI [6] was 24.2 µM. The GI50 [7] was 1.54 µM, the TGI [7] was 3.64 µM and the GI50 [8] was 12.4 µM. The TGI [8] was 25.9 µM, the GI50 [9] was 12.4 µM and the TGI [9] was 26.3 µM. It also gave a GI50 [10] of 11.1 µM and a TGI [10] of 25.6 µM.
With `CC(C)c1cc(CNc2nc(Nc3cc(C4CC4)[nH]n3)cc(N3CCN(C)CC3)n2)on1` the TGI [1] was > 10 µM and 5.54 µM, the GI50 [2] was 0.904 µM and 0.335 µM and the TGI [2] was 4.45 µM and 5.4 µM. For the same molecule, the TGI [3] was > 10 µM and 8.47 µM, the GI50 [4] was 0.0422 µM and < 0.0198 µM and the TGI [4] was 3.42 µM and 1.47 µM. The GI50 [5] was 8.33 µM and 1.7 µM, the TGI [5] was > 10 µM and 5.76 µM and the GI50 [6] was 0.587 µM. For the same molecule, the TGI [6] was greater than 10 µM, the TGI [7] was > 10 µM and 9.84 µM and the TGI [8] was > 10 µM and 6.66 µM. The TGI [9] was > 10 µM and 3.91 µM.
For `CC1CCC2C(C)C3C(CC4C5CC=C6CC(OC7OC(CO)C(O)C(OC8OC(CO)C(O)C(O)C8O)C7OC7OC(C)C(O)C(O)C7O)CCC6(C)C5CCC43C)N2C1` (stereo not drawn), the GI50 [1] was greater than 2.5 µg/mL, the TGI [1] was 21 µM and > 2.5 µg/mL and the GI50 [2] was greater than 2.5 µg/mL. The TGI [2] was 29.6 µM and > 2.5 µg/mL, the GI50 [3] was greater than 2.5 µg/mL and the TGI [3] was 33 µM and > 2.5 µg/mL. For the same molecule, the GI50 [4] was greater than 2.5 µg/mL, the TGI [4] was 29 µM and > 2.5 µg/mL and the GI50 [5] was greater than 2.5 µg/mL. The TGI [5] was 45.9 µM and > 2.5 µg/mL, the GI50 [6] was greater than 2.5 µg/mL and the TGI [6] was 21.9 µM and > 2.5 µg/mL. The GI50 [7] was greater than 2.5 µg/mL, the TGI [7] was 45 µM and > 2.5 µg/mL and the GI50 [8] was greater than 2.5 µg/mL. The TGI [8] was 20.3 µM and > 2.5 µg/mL, the GI50 [9] was greater than 2.5 µg/mL and the TGI [9] was 28 µM and > 2.5 µg/mL. The GI50 [10] was greater than 2.5 µg/mL and the TGI [10] was 31.7 µM and > 2.5 µg/mL.
In the case of `CCOC(=O)C1=C(NC(C)(C)C)OCC1=O`, the TGI [2] is reported as greater than 100 µM, the TGI [3] is reported as greater than 100 µM and the TGI [4] is reported as greater than 100 µM. The TGI [5] was greater than 100 µM, the TGI [8] was greater than 100 µM and the TGI [9] was greater than 100 µM.
`Fc1ccc(F)c(C2SCc3nc4ccccc4n32)c1` (stereo not drawn) gave a TGI [2] greater than 100 µM, a TGI [3] greater than 100 µM and a TGI [4] greater than 100 µM. For the same molecule, the TGI [5] was greater than 100 µM, the TGI [6] was greater than 100 µM and the TGI [8] was greater than 100 µM. It also gave a TGI [9] greater than 100 µM and a TGI [10] greater than 100 µM.
`C[C@H]1COC2(c3ccccc3)CCC(=O)N12` (stereo partly drawn) was tested, and the TGI [3] was greater than 100 µM, the TGI [4] was greater than 100 µM and the TGI [5] was greater than 100 µM. For the same molecule, the TGI [6] was greater than 100 µM, the TGI [8] was greater than 100 µM and the TGI [9] was greater than 100 µM. For the same molecule, the TGI [10] was greater than 100 µM.
With `COc1cc(C2CC(c3ccc4c(c3)OCO4)=NN2C(C)=O)cc(OC)c1OC` (stereo not drawn) the GI50 [1] was 0.183 µM, the TGI [1] was 0.674 µM and the GI50 [2] was 0.972 µM. The TGI [2] was greater than 65.8 µM, the GI50 [3] was 0.584 µM and the TGI [3] was greater than 100 µM. The GI50 [4] was 0.33 µM, the TGI [4] was greater than 37 µM and the GI50 [5] was 2.74 µM. For the same molecule, the TGI [5] was greater than 25.7 µM, the GI50 [6] was 3.13 µM and the TGI [6] was greater than 100 µM. The GI50 [7] was 1.44 µM, the TGI [7] was greater than 64.8 µM and the GI50 [8] was 3.66 µM. It also gave a TGI [8] greater than 100 µM, a GI50 [9] of 4.28 µM and a TGI [9] greater than 100 µM. It also gave a GI50 [10] of 0.296 µM and a TGI [10] of 4.75 µM.
Work on `COc1ccc(OC)c(-c2cc(-c3ccccc3)nn2-c2ccc(S(N)(=O)=O)cc2)c1` yielded a GI50 [1] of 6.73 µM, a TGI [1] of 24.8 µM and a GI50 [3] of 5.07 µM. It also gave a TGI [3] of 17.1 µM, a GI50 [4] of 2.82 µM and a TGI [4] greater than 100 µM. It also gave a GI50 [5] of 1.93 µM, a TGI [5] of 4.84 µM and a GI50 [6] of 18.1 µM. For the same molecule, the TGI [6] was 39.1 µM, the GI50 [8] was 8.01 µM and the TGI [8] was 19.7 µM. The GI50 [9] was 15 µM and the TGI [9] was 28.8 µM.
With `CCCCSCc1nc2nc(Cl)c(Cl)nc2[nH]1` the TGI [1] was greater than 100 µM, the TGI [2] was 57.2 µM and the TGI [3] was 85.5 µM. It also gave a TGI [4] of 52.3 µM, a TGI [5] of 38.2 µM and a TGI [6] greater than 100 µM. It also gave a TGI [7] of 62.9 µM, a TGI [8] of 71.5 µM and a TGI [9] greater than 100 µM. For the same molecule, the TGI [10] was 60.6 µM.
Molecule `C=C1C(=O)O[C@H]2[C@H]1[C@H](OC(=O)/C(C)=C\C)C[C@]1(CO1)[C@@H]1[C@H](OC(C)=O)C=C(C)[C@]21O` has a TGI [1] of 42.4 µM, a TGI [2] greater than 100 µM and a TGI [3] of 33.5 µM. It also gave a TGI [4] of 28.5 µM, a TGI [5] of 15.2 µM and a TGI [6] of 33.8 µM. For the same molecule, the TGI [7] was 36.5 µM, the TGI [8] was 24.5 µM and the TGI [9] was greater than 59.1 µM. The TGI [10] was greater than 100 µM.
`CC1CCCN(CC(O)CN2CCCc3ccccc32)C1` (stereo not drawn) gave a TGI [1] greater than 100 µM, a TGI [2] greater than 100 µM and a TGI [3] greater than 100 µM. It also gave a TGI [4] greater than 100 µM, a TGI [5] greater than 100 µM and a TGI [6] greater than 100 µM. The TGI [7] was greater than 100 µM, the TGI [8] was greater than 100 µM and the TGI [9] was greater than 100 µM. The TGI [10] was greater than 100 µM.
`CC12CCc3ccccc3C1=Nc1ccccc12` (stereo not drawn) was tested, and the TGI [1] was 82.6 µM, the TGI [2] was greater than 100 µM and the TGI [3] was greater than 100 µM. For the same molecule, the TGI [4] was greater than 100 µM, the TGI [6] was greater than 100 µM and the TGI [7] was greater than 100 µM. The TGI [8] was greater than 100 µM and the TGI [9] was greater than 100 µM.
For `CCn1c(-c2nonc2N)nc2c(C#CC(C)(C)O)nc(O[C@@H](CN)c3ccccc3)cc21`, the GI50 [1] was 0.365 µM, the TGI [1] was 2.99 µM and the GI50 [2] was 0.073 µM. The TGI [2] was 4.57 µM, the GI50 [3] was 3.1 µM and the TGI [3] was 24.1 µM. For the same molecule, the GI50 [4] was 0.099 µM, the TGI [4] was 3.59 µM and the GI50 [5] was 0.645 µM. The TGI [5] was 2.7 µM, the GI50 [6] was 0.982 µM and the TGI [6] was 9.38 µM. For the same molecule, the GI50 [7] was 0.016 µM, the TGI [7] was 2.34 µM and the GI50 [8] was 0.689 µM. It also gave a TGI [8] of 4.73 µM, a GI50 [9] of 0.859 µM and a TGI [9] of 15.8 µM. It also gave a GI50 [10] of 0.00553 µM and a TGI [10] of 0.171 µM.
`COc1ccc(/C(Cl)=C(\C=O)c2ccc(OC)c(OC)c2)cc1OC` was tested, and the TGI [1] was greater than 100 µM, the TGI [2] was greater than 100 µM and the TGI [3] was greater than 100 µM. It also gave a TGI [4] greater than 100 µM, a TGI [5] greater than 100 µM and a TGI [6] greater than 100 µM. It also gave a TGI [8] greater than 100 µM, a TGI [9] greater than 48.7 µM and a TGI [10] greater than 100 µM.
`CC1=Nc2c([nH]c(=S)[nH]c2=O)NC(c2ccc(Cl)c(Cl)c2)C1` (stereo not drawn) was tested, and the TGI [2] was 95.6 µM, the TGI [3] was greater than 60.1 µM and the TGI [4] was greater than 100 µM. It also gave a TGI [5] greater than 100 µM, a TGI [6] greater than 68.3 µM and a TGI [8] greater than 100 µM. It also gave a TGI [9] greater than 100 µM and a TGI [10] of 33.3 µM.
Molecule `COc1cc(OC)c(OC)cc1/C=C1\C=Cc2ccccc21` has a TGI [1] of 14.5 µM, a TGI [2] of 59.8 µM and a TGI [3] of 61.4 µM. The TGI [4] was greater than 100 µM, the TGI [5] was greater than 100 µM and the TGI [6] was greater than 100 µM. It also gave a TGI [7] greater than 100 µM, a TGI [8] greater than 100 µM and a TGI [9] greater than 100 µM.
`CC(F)(F)c1cc(F)ccc1-c1sc2cc(O)ccc2c1Oc1ccc(/C=C/C(=O)O)cc1` gave a GI50 [1] of 2.23 µM, a TGI [1] of 5.51 µM and a GI50 [3] of 4.13 µM. It also gave a TGI [3] of 18.2 µM, a GI50 [4] of 3.66 µM and a TGI [4] greater than 100 µM. The GI50 [5] was 8.33 µM, the TGI [5] was 74.8 µM and the GI50 [6] was 10.6 µM. For the same molecule, the TGI [6] was 39.6 µM, the GI50 [7] was 7.1 µM and the TGI [7] was 50 µM. For the same molecule, the GI50 [8] was 10.3 µM, the TGI [8] was 45.5 µM and the GI50 [9] was 17.4 µM. For the same molecule, the TGI [9] was 37.7 µM.
